Data on eight compounds can be found in PubChem BioAssay AID2060605 (Molecular Pharmacology Branch, DTP, NCI, 2025).

The assay deals with 947758-054-R-J2-PDC spheroid growth, percent test/control. As to the kind of experiment: Anticancer human tumor 947758-054-R-J2-PDC patient-derived colon adenocarcinoma cell line growth inhibition [CLK]. The conditions noted are these: spheroids with HUVEC and MSC; for viability, T/C: stronger effect = lower value. In short, it runs like this:
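Multi-cell-type spheroids combined patient-derived tumor cells with HUVEC endothelial cells and human mesenchymal stem cells. Paired agents were dosed in half-log steps down from about clinical Cmax, or from 10 microM where Cmax was unknown.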

Where [1] appears, read: curve of first compound, second compound 0.0316 µM.
Where [2] appears, read: curve of first compound, second compound 0.1 µM.
The mark [3] stands for this setting: curve of first compound, second compound 0.316 µM.
Where [4] appears, read: curve of first compound, second compound 1 µM.
The mark [5] stands for this setting: curve of first compound, second compound 3.16 µM.
Setting [6] is: curve of first compound, second compound 10 µM.
The mark [7] stands for this setting: second compound 0.0316 µM, first compound 0.0316 µM.
Where [8] appears, read: second compound 0.0316 µM, first compound 0.1 µM.
[9] abbreviates: second compound 0.0316 µM, first compound 0.316 µM.
[10] abbreviates: second compound 0.0316 µM, first compound 1 µM.
Where [11] appears, read: second compound 0.0316 µM, first compound 3.16 µM.
[12] abbreviates: second compound 0.0316 µM, first compound 10 µM.
Setting [13] is: second compound 0.1 µM, first compound 0.0316 µM.
The mark [14] stands for this setting: second compound 0.1 µM, first compound 0.1 µM.
Where [15] appears, read: second compound 0.1 µM, first compound 0.316 µM.
The mark [16] stands for this setting: second compound 0.1 µM, first compound 1 µM.
The mark [17] stands for this setting: second compound 0.1 µM, first compound 3.16 µM.
[18] abbreviates: second compound 0.1 µM, first compound 10 µM.
The mark [19] stands for this setting: second compound 0.316 µM, first compound 0.0316 µM.
Setting [20] is: second compound 0.316 µM, first compound 0.1 µM.
[21] abbreviates: second compound 0.316 µM, first compound 0.316 µM.
Setting [22] is: second compound 0.316 µM, first compound 1 µM.
[23] abbreviates: second compound 0.316 µM, first compound 3.16 µM.
[24] abbreviates: second compound 0.316 µM, first compound 10 µM.
[25] abbreviates: second compound 1 µM, first compound 0.0316 µM.
The mark [26] stands for this setting: second compound 1 µM, first compound 0.1 µM.
The mark [27] stands for this setting: second compound 1 µM, first compound 0.316 µM.
Setting [28] is: second compound 1 µM, first compound 1 µM.
Setting [29] is: second compound 1 µM, first compound 3.16 µM.
[30] abbreviates: second compound 1 µM, first compound 10 µM.
Where [31] appears, read: second compound 3.16 µM, first compound 0.0316 µM.
Where [32] appears, read: second compound 3.16 µM, first compound 0.1 µM.
Setting [33] is: second compound 3.16 µM, first compound 0.316 µM.
The mark [34] stands for this setting: second compound 3.16 µM, first compound 1 µM.
Setting [35] is: second compound 3.16 µM, first compound 3.16 µM.
The mark [36] stands for this setting: second compound 3.16 µM, first compound 10 µM.
[37] abbreviates: second compound 10 µM, first compound 0.0316 µM.
Where [38] appears, read: second compound 10 µM, first compound 0.1 µM.
The mark [39] stands for this setting: second compound 10 µM, first compound 0.316 µM.
Where [40] appears, read: second compound 10 µM, first compound 1 µM.
[41] abbreviates: second compound 10 µM, first compound 3.16 µM.
[42] abbreviates: second compound 10 µM, first compound 10 µM.

SMILES strings stand for the structures. Values joined by “and” are separate entries in the source; they are usually repeats but may differ in a detail not shown here. Equal values may be shown once.
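Note: spheroids exposed to compounds for one week before readout.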
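Throughout, for viability, T/C: 100% = DMSO vehicle control wells.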

A word on the IC50: it is the midpoint of a concentration-inhibition curve. For orientation: viability, T/C means the result in the treated group divided by that in the control group, in per cent. Take `C=CC(=O)N1CCN(c2nc(=O)n(-c3c(C)ccnc3C(C)C)c3nc(-c4c(O)cccc4F)c(F)cc23)C(C)C1` (stereo unspecified) + CN1CCN(c2cc(C(=O)Nc3cc4cc(-c5cnn(C)c5)ccc4cn3)ccn2)CC1: the IC50 by setting is: under setting [1], more than 10 µM; under setting [2], more than 10 µM; under setting [3], less than 0.0316 µM; under setting [4], less than 0.0316 µM; under setting [5], less than 0.0316 µM; under setting [6], less than 0.0316 µM. In addition, the viability, T/C runs as follows: under setting [7], 118%; under setting [8], 143%; under setting [9], 122%; under setting [10], 98.4%; under setting [11], 113%; under setting [12], 99.8%. Moreover, the viability, T/C runs as follows: under setting [13], 172%; under setting [14], 199%; under setting [15], 161%; under setting [16], 234%; under setting [17], 167%; under setting [18], 77.3%. Besides, the viability, T/C was 4.67% under setting [19]; 7.3% under setting [20]; 6.68% under setting [21]; 5.29% under setting [22]; 3.14% under setting [23]; 1.35% under setting [24]. The viability, T/C reads like this: under setting [25], 0.18%; under setting [26], 3.35%; under setting [27], 0.19%; under setting [28], 0.19%; under setting [29], 0.18%; under setting [30], 0.21%. Further, the viability, T/C by setting is: under setting [31], 2.2%; under setting [32], 0.99%; under setting [33], 0.31%; under setting [34], 0.31%; under setting [35], 0.72%; under setting [36], 0.51%. For the same compound, the viability, T/C reads like this: under setting [37], 0.46%; under setting [38], 0.29%; under setting [39], 1.59%; under setting [40], 0.39%; under setting [41], 0.98%; under setting [42], 0.57%.
For the compound `COC1C=CCC(C)C(C)S(=O)(=O)NC(=O)c2ccc3c(c2)N(CC2CCC21)CC1(CCCc2cc(Cl)ccc21)CO3` (stereo unspecified), the viability, T/C by setting is: (compound 0.0316 µM) 99.1% and 84.9%; (compound 0.1 µM) 77.1% and 86.7%; (compound 0.316 µM) 101% and 100%; (compound 1 µM) 75.3% and 81.2%; (compound 3.16 µM) 94.4% and 83.8%; (compound 10 µM) 41.3% and 42.6%. The concentration for half-maximal inhibition (IC50) (curve of compound) was 8.14 µM and 8.09 µM.
Take `CC(CO)NC(=O)c1cc(-c2ccc(Cl)cc2)nn(-c2cnn(C)c2)c1=O` (stereo unspecified) + CNC(=O)c1ccc(Nc2nc(OC3CCCC3)c3c(-c4ccc5nc(C)oc5c4)c[nH]c3n2)c(OC)c1: the IC50 under setting [1] is more than 10 µM; the IC50 under setting [2] was more than 10 µM; the IC50 under setting [3] was 9.67 µM; the IC50 under setting [4] was more than 10 µM; the IC50 under setting [5] was less than 0.0316 µM; the IC50 under setting [6] is less than 0.0316 µM. Further, the viability, T/C runs as follows: under setting [7], 92.2%; under setting [8], 66.3%; under setting [9], 72.1%; under setting [10], 71.8%; under setting [11], 65.8%; under setting [12], 52.3%. Further, the viability, T/C is 84.3% under setting [13]; 93.9% under setting [14]; 80% under setting [15]; 84.6% under setting [16]; 68.6% under setting [17]; 52.5% under setting [18]. The viability, T/C reads like this: under setting [19], 76.2%; under setting [20], 69%; under setting [21], 69.8%; under setting [22], 87.1%; under setting [23], 88.5%; under setting [24], 49.1%. Moreover, the viability, T/C runs as follows: under setting [25], 67.2%; under setting [26], 51.9%; under setting [27], 52.7%; under setting [28], 65.3%; under setting [29], 72.4%; under setting [30], 35.9%. In addition, the viability, T/C is, setting by setting: under setting [31], 46.9%; under setting [32], 41%; under setting [33], 51.1%; under setting [34], 56.6%; under setting [35], 55.9%; under setting [36], 37.2%. Moreover, the viability, T/C under setting [37] is 28.5%; the viability, T/C under setting [38] is 44.2%; the viability, T/C under setting [39] was 40.4%; the viability, T/C under setting [40] is 41.6%; the viability, T/C under setting [41] was 30%; the viability, T/C under setting [42] was 25.9%.
Consider `C=CC(=O)Nc1cc(Nc2nccc(-c3cn(C)c4ccccc34)n2)c(OC)cc1N(C)CCN(C)C`, for which the viability, T/C (compound 0.000949 µM) was 85.6% and 108%; the viability, T/C (compound 0.003 µM) was 62.3% and 94.7%; the viability, T/C (compound 0.00949 µM) was 90.8% and 103%; the viability, T/C (compound 0.03 µM) is 94.7% and 69.1%; the viability, T/C (compound 0.0949 µM) is 74.3% and 92.2%; the viability, T/C (compound 0.3 µM) is 87.2% and 78.5%. Further, the IC50 (curve of compound) was more than 0.3 µM.
As to `CC1(C)CCC(CN2CCN(c3ccc(C(=O)NS(=O)(=O)c4ccc(NCC5CCOCC5)c([N+](=O)[O-])c4)c(Oc4cnc5[nH]ccc5c4)c3)CC2)=C(c2ccc(Cl)cc2)C1`, the viability, T/C (compound 0.0316 µM) is 97.8% and 118%; the viability, T/C (compound 0.1 µM) was 77.6% and 97.2%; the viability, T/C (compound 0.316 µM) is 97.4% and 110%; the viability, T/C (compound 1 µM) is 94.5% and 86.3%; the viability, T/C (compound 3.16 µM) is 79.5% and 87.2%; the viability, T/C (compound 10 µM) was 11.8% and 7.38%. Further, where the note is “curve of compound”, the IC50 was 5.23 µM and 5.17 µM.
Consider `Nc1ccn(C2OC(CO)C(O)C2(F)F)c(=O)n1` (stereo unspecified), for which the viability, T/C (compound 0.0316 µM) was 35.4% and 24.8%; the viability, T/C (compound 0.1 µM) is 9.92% and 9.41%; the viability, T/C (compound 0.316 µM) was 13.3% and 10.2%; the viability, T/C (compound 1 µM) is 14.8% and 12.9%; the viability, T/C (compound 3.16 µM) was 10.8% and 9.65%; the viability, T/C (compound 10 µM) was 8.94% and 10.9%. Also, the IC50 (curve of compound) is less than 0.0316 µM.
Turning to `NC(=O)C(=Cn1cnc(-c2cc(C(F)(F)F)cc(C(F)(F)F)c2)n1)c1cncnc1`, the viability, T/C is 101% and 94.5% (compound 0.00949 µM); 91% and 92.6% (compound 0.03 µM); 59.9% and 62.1% (compound 0.0949 µM); 28.5% and 28.9% (compound 0.3 µM); 10.5% and 10% (compound 0.949 µM); 2.27% and 3.82% (compound 3 µM). Further, the concentration for half-maximal inhibition (IC50) (curve of compound) is 0.14 µM and 0.149 µM.
For the compound `Nc1ccccc1NC(=O)c1ccc(CNC(=O)OCc2cccnc2)cc1`, the viability, T/C was 102% and 80.7% (compound 0.0316 µM); 105% and 97.2% (compound 0.1 µM); 115% and 90.4% (compound 0.316 µM); 96% and 121% (compound 1 µM); 77.7% and 55.5% (compound 3.16 µM); 13.9% and 11.4% (compound 10 µM). For the same compound, the IC50 (curve of compound) was 5.18 µM and 3.66 µM.
